This is an account of results in publication PMC3440348, “Identification of Novel Human Dipeptidyl Peptidase-IV Inhibitors of Natural Origin (Part I): Virtual Screening and Activity Assays” (PLoS ONE, 2012).

This assay concerns the target T1, DPP-IV (dipeptidyl peptidase-IV) (Homo sapiens, UniProt P27487).
T1 construct: gene DPP4; commercial recombinant human DPP-IV
As to the kind of experiment: fluorimetric DPP-IV inhibition assay (H-Gly-Pro-AMC), dose-response. The class given is biochemical.

The structures appear in SMILES notation.

T1 sequence (P27487 39-766): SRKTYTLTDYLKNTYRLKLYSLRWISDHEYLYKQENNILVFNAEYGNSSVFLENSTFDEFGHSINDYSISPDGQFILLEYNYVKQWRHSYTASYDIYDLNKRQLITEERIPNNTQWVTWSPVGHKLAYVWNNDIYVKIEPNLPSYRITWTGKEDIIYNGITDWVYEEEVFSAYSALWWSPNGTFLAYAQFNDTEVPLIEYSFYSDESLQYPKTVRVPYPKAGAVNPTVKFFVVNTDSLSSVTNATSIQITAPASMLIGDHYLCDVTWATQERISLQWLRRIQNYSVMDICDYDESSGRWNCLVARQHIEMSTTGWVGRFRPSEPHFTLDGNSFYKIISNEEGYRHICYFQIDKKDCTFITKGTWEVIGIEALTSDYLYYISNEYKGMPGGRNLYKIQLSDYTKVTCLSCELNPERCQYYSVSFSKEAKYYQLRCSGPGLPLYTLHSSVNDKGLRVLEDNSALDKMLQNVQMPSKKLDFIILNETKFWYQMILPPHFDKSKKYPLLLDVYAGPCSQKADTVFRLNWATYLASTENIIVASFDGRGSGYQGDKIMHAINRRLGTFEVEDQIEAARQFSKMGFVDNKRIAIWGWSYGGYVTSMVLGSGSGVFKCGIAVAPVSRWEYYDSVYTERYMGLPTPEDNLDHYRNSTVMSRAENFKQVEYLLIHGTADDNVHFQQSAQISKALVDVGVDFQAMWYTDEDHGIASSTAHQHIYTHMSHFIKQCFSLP

`CCCCN(C)Cc1c(O)ccc2c(-c3cc4ccccc4oc3=O)cc(=O)oc12` [C5, ZINC02132035] showed a half-inhibitory concentration (IC50) of 61.6 µM.

A word on the IC50: it is the concentration that inhibits the measured activity by half. High values mean a need for much substance, low ones inhibition by little substance.
